Structures are written as SMILES.

The target in this assay is T1, human GPR119 (Homo sapiens, UniProt Q8TDV5).
T1 sequence (Q8TDV5 1-308 limits assumed): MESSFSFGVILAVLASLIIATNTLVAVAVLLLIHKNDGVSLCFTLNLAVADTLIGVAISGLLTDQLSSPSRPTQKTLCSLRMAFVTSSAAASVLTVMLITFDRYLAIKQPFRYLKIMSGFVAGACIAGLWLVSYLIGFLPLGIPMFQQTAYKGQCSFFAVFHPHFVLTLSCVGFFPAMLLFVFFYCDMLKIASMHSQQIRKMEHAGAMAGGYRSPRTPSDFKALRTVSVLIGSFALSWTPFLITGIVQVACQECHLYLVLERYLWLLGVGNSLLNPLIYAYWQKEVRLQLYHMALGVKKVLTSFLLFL
Nature of the assay: Measurement of GPR119 signaling by cAMP (LANCE cAMP kit or HTRF) in HEK293 cells transfected with human GPR119. It counts as cell-based. As to conditions: agonist cAMP response in HEK293 cells stably transfected with human GPR119; patent does not say which of the two cAMP formats (LANCE or HTRF). The protocol: Measurement of GPR119 Signaling Using LANCE 384-Well cAMP Kit
The adenylate cyclase assay was constructed following the LANCE™ cAMP Kit (Perkin Elmer, AD0264) instructions. […] The reaction was stopped by incubating with the supplied detection buffer containing the europium chelate of the Eu-SA/Biotin-cAMP tracer for 3 hours. The assay was performed in duplicate in a 384 well plate for duplicate plates. […] Basal activity was determined using a DMSO control and maximum response was defined as cAMP stimulation produced by an internal agonist control. Standard cAMP concentrations were assayed concurrently for conversion of fluorescence signal to cAMP level. The data was analyzed using 4-parameter curve fit in Microsoft Excel
Measurement of GPR119 Signaling Using a Cyclic AMP (cAMP) Homogenous Time Resolved Fluorescence (HTRF) Assay
Chinese hamster ovary (CHO) cell lines stably transfected with the permissive guanine nucleotide binding protein alpha 15 (Gα15) and murine GPR119 were maintained in DMEM media containing FBS, penicillin-streptomycin, puromycin, and G418 (geneticin). […] Agonist activation of the GPR119 receptor was measured in receptor transfected cells described above, treated with compounds of this invention, using a commercial homogenous time resolved fluorescence (HTRF) kit for measurement of cAMP (CisBio, Bedford, Mass.). The assay was performed in 96-well half-volume plates (murine) or 384-well plates (human) following the manufacturers instructions. Briefly, suspended cells were incubated with a dose titration of test compound at room temperature for 60 min, lysed, and incubated with HTRF reagents for an additional 60 min. The plate was read using an Envision multilabel reader (Perkin Elmer) adjusted to read time resolved fluorescence and the cAMP concentrations were extrapolated from a cAMP calibration curve. […] The concentration of test compound required to stimulate a half-maximal response (EC50), and efficacy as compared to an internal agonist control, was determined from a sigmoidal 4-parameter curve fit of the resulting plot of normalized activity versus compound concentration.
`COCc1cnc(N2CCC([C@H]3C[C@H]3CCOc3cc(F)c(CC(=O)N4CC(OC)C4)c(F)c3)CC2)nc1` [Example 225] yielded a concentration giving a half-maximal response (EC50) of 0.35 nM. This lies in the sub-nanomolar range. As to `O=C(Cc1ccc(OCC[C@@H]2C[C@@H]2C2CCN(c3ncc(Cl)cn3)CC2)cc1F)N1CCCC1CO` (stereo partly shown) [Example 108], the 50% effective concentration (EC50) amounted to 2.5 nM. With `CN(CC1CCCCC1)C(=O)Cc1ccc(OCC[C@@H]2C[C@@H]2C2CCN(c3ncc(Cl)cn3)CC2)cc1F` [Example 167], a half-maximal effect (EC50) was put at 7.6 nM. Compared with the last molecule, the EC50 is about 3-fold higher. The molecule `CC1(NC(=O)Cc2ccc(OCC[C@@H]3C[C@@H]3C3CCN(c4ncc(Cl)cn4)CC3)cc2F)CCCCC1` [Example 91] gave an EC50 of 9.3 nM.

`CC1(O)CN(C(=O)Cc2ccc(OCC[C@@H]3C[C@@H]3C3CCN(c4ncc(Cl)cn4)CC3)cc2F)C1` [Example 66] yielded an EC50 of 0.4 nM. Regarding `O=C(Cc1ccc(OCC[C@@H]2C[C@@H]2C2CCN(c3ncc(Cl)cn3)CC2)cc1F)N1CC(n2cccn2)C1` [Example 119], a half-maximal effect (EC50) was put at 0.81 nM. Compared with the last molecule, the EC50 is about 2-fold higher. For `COCc1cnc(N2CCC([C@H]3C[C@H]3CCOc3ccc(CC(=O)N4CCC(O)CC4)c(F)c3)CC2)nc1` [Example 56] the value was 3.7 nM. On to `O=C(Cc1ccc(OCC[C@@H]2C[C@@H]2C2CCN(c3ncc(Cl)cn3)CC2)cc1F)N1CCCc2cnccc21` [Example 194], for which the concentration giving a half-maximal response (EC50) came out at 3.6 nM. Consider `O=C(Cc1ccc(OCC[C@@H]2C[C@@H]2C2CCN(c3ncc(Cl)cn3)CC2)cc1F)N1CCc2sc(C3CC3)nc2C1` [Example 190], for which the EC50 was determined as 6.4 nM. Regarding `Cc1cc(OCC[C@@H]2C[C@@H]2C2CCN(c3ncc(Cl)cn3)CC2)ccc1CC(=O)N1CCC1` [Example 15, 1-(azetidin-1-yl)-2-[4-(2-{(1S,2R)-2-[1-(5-chloropyrimidin-2-yl)piperidin-4-yl]cyclopropyl}ethoxy)-2-methylphenyl]ethanone], the response was half-maximal at 0.73 nM (EC50). In the case of `CN(C)C(=O)Cc1ccc(OCC[C@@H]2C[C@@H]2C2CCN(c3ncc(Cl)cn3)CC2)cc1F` [Example 81], the EC50 was found to be 0.63 nM. Turning to `O=C(Cc1ccc(OCC[C@@H]2C[C@@H]2C2CCN(c3ncc(Cl)cn3)CC2)cc1Cl)N1CCC1` [Example 20, 1-(azetidin-1-yl)-2-[2-chloro-4-(2-{(1S,2R)-2-[1-(5-chloropyrimidin-2-yl)piperidin-4-yl]cyclopropyl}ethoxy)phenyl]ethanone], the concentration for a half-maximal effect (EC50) was determined as 0.32 nM. In turn, `O=C(Cc1ccc(OCC[C@@H]2C[C@@H]2C2CCN(c3ncc(Cl)cn3)CC2)cc1F)N1CCc2[nH]nnc2C1` [Example 152] came in with a half-maximal effective concentration (EC50) of 1.9 nM.

`COCc1cnc(N2CCC([C@H]3C[C@H]3CCOc3cc(F)c(CC(=O)N4CCC4)c(F)c3)CC2)nc1` [Example 219, 1-(azetidin-1yl)-2-(2,6-difluoro-4-{2[(1S,2R)-2-{1-[5-(methoxylmethyl)pyrimidin-2yl]piperidin-4-yl}cyclopropyl]ethoxyl}phenyl)ethanone] came in with an EC50 of 0.18 nM. Against the preceding molecule, the EC50 is about 11-fold lower.

Regarding `CC1c2nc(C(F)(F)F)cn2CCN1C(=O)Cc1ccc(OCC[C@@H]2C[C@@H]2C2CCN(c3ncc(Cl)cn3)CC2)cc1F` (stereo partly shown) [Example 188], the concentration giving a half-maximal response (EC50) was 0.55 nM. Against the preceding molecule, the EC50 is about 3.1-fold higher. As for `CC1CCN(C(=O)Cc2ccc(OCC[C@@H]3C[C@@H]3C3CCN(c4ncc(Cl)cn4)CC3)cc2F)CC1` [Example 99], the response was half-maximal at 4 nM (EC50).

On to `COc1cnc(N2CCC([C@H]3C[C@H]3CCOc3ccc(CC(=O)N4CCOCC4)c(F)c3)CC2)nc1` [Example 38], for which the concentration giving a half-maximal response (EC50) was 1.4 nM. This EC50 is about 2.9-fold lower than that of the molecule before. For `O=C(Cc1ccc(OCC[C@@H]2C[C@@H]2C2CCN(c3ncc(Cl)cn3)CC2)cc1F)N1CCc2c(C3CC3)n[nH]c2C1` [Example 142] the value was 3.1 nM. Regarding `CC(CO)NC(=O)Cc1ccc(OCC[C@@H]2C[C@@H]2C2CCN(c3ncc(Cl)cn3)CC2)cc1F` (stereo partly shown) [Example 116], the half-maximal effective concentration (EC50) is 9.2 nM. This EC50 lies about 3-fold higher than the previous one. `O=C(Cc1ccc(OCC[C@@H]2C[C@@H]2C2CCN(c3ncc(Cl)cn3)CC2)cc1F)N1CCc2oncc2C1` [Example 183]: the EC50 turned out to be 0.93 nM. Against the preceding molecule, the EC50 is about 9.9-fold lower.

In turn, `O=C(Cc1ccc(OCC[C@@H]2C[C@@H]2C2CCN(c3ncc(Cl)cn3)CC2)cc1F)N1CCn2c(Cc3ccccc3)cnc2C1` [Example 181] had an EC50 of 6.1 nM. For `COCc1cnc(N2CCC([C@H]3C[C@H]3CCOc3ccc(CC(=O)N4CC(O)C4)cc3)CC2)nc1` [Example 7, 1-(3-hydroxyazetidin-1-yl)-2-(4-{2-[(1S,2R)-2-{1-[5-(methoxymethyl)pyrimidin-2-yl]piperidin-4-yl}cyclopropyl]ethoxy}phenyl)ethanone], the EC50 came out at 7.7 nM. As for `CN(CC(C)(C)C)C(=O)Cc1ccc(OCC[C@@H]2C[C@@H]2C2CCN(c3ncc(Cl)cn3)CC2)cc1F` [Example 168], the EC50 came out at 9.4 nM.

For the molecule `O=C(Cc1ccc(OCC[C@@H]2C[C@@H]2C2CCN(c3ncc(Cl)cn3)CC2)cc1F)N1CCC(C(F)(F)F)n2nccc21` (stereo partly shown) [Example 195], the midpoint of the response, the EC50, lay at 2.9 nM. Against the preceding molecule, the EC50 is about 3.2-fold lower. Take `CCc1cnc(N2CCC([C@H]3C[C@H]3CCOc3ccc(CC(=O)NC4CC4)c(F)c3)CC2)nc1` [Example 208]: it took 1.9 nM to reach a half-maximal effect (EC50). For `COCc1cnc(N2CCC([C@H]3C[C@H]3CCOc3cc(F)c(CC(=O)N(C)C)c(F)c3)CC2)nc1` [Example 224], the EC50 amounted to 0.4 nM. `CC1CN(C(=O)Cc2ccc(OCC[C@@H]3C[C@@H]3C3CCN(c4ncc(Cl)cn4)CC3)cc2F)C1` [Example 64] displayed an EC50 of 0.95 nM.

Molecule `CCOc1cnc(N2CCC([C@H]3C[C@H]3CCOc3cc(F)c(CC(=O)N4CCC4)c(F)c3)CC2)nc1` [Example 229, 1-(azetidin-1-yl)-2-[4-(2-{(1S,2R)-2-[1-(5-ethoxypyrimidin-2-yl)piperidin-4-yl]cyclopropyl}ethoxy)-2,6-difluorophenyl]ethanone] had an EC50 of 0.14 nM. This EC50 lies about 6.8-fold lower than the previous one. Take `CC(C)(O)c1cnc(N2CCC([C@H]3C[C@H]3CCOc3cc(F)c(CC(=O)N4CCC4)c(F)c3)CC2)nc1` [Example 206]: the EC50 amounted to 0.71 nM. As for `O=C(Cc1ccc(OCC[C@@H]2C[C@@H]2C2CCN(c3ncc(Cl)cn3)CC2)cc1F)N1CCc2oc(C3CC3)nc2C1` [Example 143], the EC50 was determined as 4.7 nM.

As for `Cc1nnc(Cc2ccc(OCC[C@@H]3C[C@@H]3C3CCN(c4ncc(Cl)cn4)CC3)cc2F)o1` [Example 244, 5-chloro-2-{4-[(1R,2S)-2-(2-{3-fluoro-4-[(5-methyl-1,3,4-oxadizol-2-yl)methyl]phenoxy}ethyl)cyclopropyl]piperidin-1-yl}pyrimidine], a half-maximal response (EC50) required 5.1 nM.

`CCC(C)NC(=O)Cc1ccc(OCC[C@@H]2C[C@@H]2C2CCN(c3ncc(Cl)cn3)CC2)cc1F` (stereo partly shown) [Example 100] gave an EC50 of 1.8 nM.

Consider `Cn1nc(C(F)(F)F)c2c1CCN(C(=O)Cc1ccc(OCC[C@@H]3C[C@@H]3C3CCN(c4ncc(Cl)cn4)CC3)cc1F)C2` [Example 187], for which a half-maximal effect (EC50) was put at 2 nM.

In turn, `CCOc1cnc(N2CCC([C@H]3C[C@H]3CCOc3cc(F)c(CC(=O)N4CC(OC)C4)c(F)c3)CC2)nc1` [Example 236] registered an EC50 of 0.12 nM. With `CC[C@@H](CO)NC(=O)Cc1ccc(OCC[C@@H]2C[C@@H]2C2CCN(c3ncc(Cl)cn3)CC2)cc1F` [Example 103], the EC50 turned out to be 9.7 nM. As for `COc1cnc(N2CCC([C@H]3C[C@H]3CCOc3cc(F)c(CC(=O)N4CC(O)C4)c(F)c3)CC2)nc1` [Example 210, 2-[2,6-difluoro-4-(2-{(1S,2R)-2-[1-(5-methoxypyrimidin-2-yl)piperidin-4-yl]cyclopropyl}ethoxy)phenyl]-1-(3-hydroxyazetidin-1-yl)ethanone], a half-maximal response (EC50) required 0.59 nM.

On to `O=C(Cc1ccc(OCC[C@@H]2C[C@@H]2C2CCN(c3ncc(Cl)cn3)CC2)cc1F)NCC(F)(F)F` [Example 79], for which the EC50 stood at 1.6 nM.

As to `O=C(Cc1ccc(OCC[C@@H]2C[C@@H]2C2CCN(c3ncc(Cl)cn3)CC2)cc1F)N1CCc2[nH]ncc2C1` [Example 139], the EC50 came to 2 nM. Regarding `O=C(Cc1ccc(OCC[C@@H]2C[C@@H]2C2CCN(c3ncc(Cl)cn3)CC2)cc1F)N1CCn2cnnc2C1` [Example 138], the midpoint of the response, the EC50, lay at 1.5 nM. The EC50 values of the last two molecules are within 1.5-fold of each other. For `COCc1cnc(N2CCC([C@H]3C[C@H]3CCOc3ccc(CC(=O)N4CCCC4(F)F)c(F)c3)CC2)nc1` [Example 52] the value was 0.36 nM.

As a reminder, the EC50 is the concentration giving half of the maximal effect. Lower therefore signals a more potent agent.

The values are drawn from patent US9018224B2, “Substituted cyclopropyl compounds useful as GPR119 agonists” (Merck Sharp & Dohme Corp., priority 2011, dated 2015).
